Experiment [1] deals with small-cell lung cancer cell line N417A. Kind of experiment: Test (b): growth inhibition of N417A cells in culture, tetrazolium salt method. The class given is cell-based. The following applies: read-out: IC₅₀. An excerpt: (b) Any assay which determines the ability of a test compound to inhibit the growth of the small-cell lung cancer cell line N417A in cell culture. The test is similar to that described by T. Mosmann (J. Immunol. Meths., 1983, 65, 55-63) but using the tetrazolium salt method of J. Carmichael et al. (J. Cancer Res., 1987, 47, 936-942) to assess the reductive capacity of any viable cells.

A further experiment has as its system topoisomerase-II. Kind of experiment: Test (a): in vitro topoisomerase-II interaction assay, DNA fragmentation of labelled pUC18 plasmid. The class given is biochemical, human. The settings on record: test compound at 100 µM; for activity in Test (a): DNA fragmentation with topoisomerase-II from HeLa cells. As for the experimental part:
(a) An in vitro assay which determines the ability of a test compound to interact with the enzyme topoisomerase-II, obtained in partially purified form from human HeLa cervical carcinoma cells grown in cell culture. Aliquots of the topoisomerase-II so obtained are added to a mixture of plasmid DNA [0.5 ng of a linearised pUC18 plasmid labelled with [³²P]-ATP], test compound (dissolved in dimethylsulphoxide) and a conventional buffer solution comprising essential salts, bovine serum albumin, ATP, EDTA and 2-mercaptoethanol. The mixture is incubated at 30°C for 10 minutes. Sodium dodecylsulphate and proteinase K are added in turn to give final concentrations of 1% w/v and 2 mg/ml respectively and the mixture is heated to 45°C to effect proteolysis. The resultant mixture is analysed by electrophoresis on a polyacrylamide gel at pH 8.3 and 450 volts for one hour. Thereafter the gel is fixed, dried and autoradiogrammed to determine the extent of DNA fragmentation.

In the case of `COc1cc(Cn2c3ccccc3c(=O)c3ccc(S(=O)(=O)CCN(C)C)cc32)cc(OC)c1O` [3-(2-dimethylaminoethylsulphonyl)-10-(4-hydroxy-3,5-dimethoxybenzyl)-9,10-dihydroacridin-9-one], the IC50 in experiment [1] is 800 nM. Moreover, in the experiment on topoisomerase-II, the “etoposide concentration giving activity equivalent to the test compound in Test (a)” value is recorded as 100 µM and the “activity in Test (a)” value is listed as “significant activity”.

In the case of `COc1cc(Cn2c3ccccc3c(=O)c3ccc(Cl)cc32)cc(OC)c1O` [3-chloro-10-(4-hydroxy-3,5-dimethoxybenzyl)-9,10-dihydroacridin-9-one], in experiment [1], the IC50 was 400 nM. Besides, in the experiment with topoisomerase-II, the “etoposide concentration giving activity equivalent to the test compound in Test (a)” value worked out at 25 µM and the “activity in Test (a)” value is reported as “significant activity”.

As to `COc1cc(Cn2c3ccccc3c(=O)c3cccnc32)cc(OC)c1O` [10-(4-hydroxy-3,5-dimethoxybenzyl)-5,10-dihydrobenzo[b][1,8]naphthyridin-5-one], the IC50 in experiment [1] is 3700 nM. Further, in the experiment with topoisomerase-II, the “etoposide concentration giving activity equivalent to the test compound in Test (a)” value is reported as 50 µM and the “activity in Test (a)” value is on record as “significant activity”.

Values taken from EP0471516A1, “Tricyclic heterocyclic derivatives” (IMPERIAL CHEMICAL INDUSTRIES PLC, priority 1990, dated 1992).
